This is an account of results in patent US20220110985A1, “NUTRITIONAL COMPOSITION COMPRISING 2'FUCOSYLLACTOSE AND 3'GALACTOSYLLACTOSE” (N.V. Nutricia, priority 2019, published 2022).

The subject of experiment [1] is Bifidobacteria. The experiment can be described thus: Fecal slurry fermentation: total Bifidobacteria. The class given is cell-based. Here is the method: Anaerobic fermentation of fecal slurry samples was tested in a BioLector Pro microfluidics mini multifermentor. Faecal slurry samples were collected from breast fed infants and from formula fed infants. These faecal slurry samples were processed by adding 0.6 grams feces in 40 ml Baby Reichardt V.6 medium+mucus+Ammonium sulfate+lactate and acetate. The resulting solutions were inserted to the BioLector Pro microfluidics mini multifermentor. The test legs were supplemented with 3-GL, 2′-FL, 3′-GL+2′-FL, and GOS/FOS. The control leg was supplemented with sterile water.
A 32 well plate that can handle low pH was used. The wells of this plate were filled with fecal solution. 2.5% (w/v) of the different sterile carbohydrate solutions (3′-GL, 2′-FL, 2′-FL/3′-GL (2.0+0.5%). and Glucose were added to the fecal slurry according to a template.
The experiment was started, and pH setpoint was either 5.5 (facial inoculum from infant 1, vaginally born, breast fed) or pH 6.0 (Inoculum from infant 2, vaginally born, breast fed) with continuous pH regulation, and temperature 37° C., humidity 85%, OD control. At 4, 8 and 24 hours a sample is taken for CFU determination on TOS-propionate MUP agar (total Bifidobacteria), XLD agar for Salmonella enteriditis S29, and Simons citrate inositol agar for Klebsiella pneumonia K2 and for SCFA, D- and L Lactate and ammonia analysis. Fecal pellet was used for 16s DNA sequencing.

Experiment [2] has as its system human PBMC, CD3/CD28 stimulated. Kind of experiment: Cytokine production of CD3/CD28 stimulated PBMC. The class given is cell-based. To be noted: for CCL17 levels, in words / levels of IL-4 and IL-13 as compared to control, in words: CD3/CD28 stimulated PBMC, pre-incubation; for Relative level of CCL17, Mean (s.e.) / Relative level of IL-4, Mean (s.e.) / Relative level of IL-13, Mean (s.e.): CD3/CD28 stimulated, 24 h pre-incubation, 0.2 wt % 2′-FL, 0.1 wt % 3′-GL, blanc = 1, observed. Here is the method: Isolation of PBMC from healthy donors: Human peripheral blood mononuclear cells (PBMC) from healthy donors were isolated from buffy coats (Sanquin, Amsterdam, the Netherlands). PBMC were obtained by centrifugation using Leucosep tubes (Greiner Bio-One). PBMC were collected and washed in PBS (Gibco, Thermo Fisher Technologies)+2% heat-inactivated FCS (Invitrogen), followed by hypotonic lysis of erythrocytes with sterile lysis buffer (0.15 M NH4Cl, 0.01 M KHCO3 and 0.1 mM EDTA, pH of 7.4 at 4° C., all from Merck, Darmstadt, Germany). After lysis, the PBMC were resuspended in freezing medium (70% RPMI 1640 medium (Gibco, Thermo Fisher Technologies) supplemented with 10% heat-inactivated FCS and 100 U/ml penicillin-streptomycin, 20% heat-inactivated FCS and 10% DMSO (Sigma)) and cryopreserved.
PBMC activation model: PBMC (0.2·10^6 cell/well) were cultured in 96-well flat bottom plates (Corning). For 24 hours the cells were pre-incubated with 2′-FL (Jennewein), 3′-GL (0-0.3% w/v; Carbosynth) or sodium butyrate (0.2 mM; Sigma Aldrich) and combinations thereof. Subsequently, the cells were CD3/CD28-activated (Pelicluster CD3 and Pelicluster CD28, Sanquin) for an additional 24 hours. After incubation, IFNγ was measured by ELISA in the supernatants (see below). To determine cell activity after stimulation, PBMC were incubated with cell proliferation reagent WST-1 (10 μl; Roche) and/or 10% Triton (5 μl; negative control). After 3 hours, absorbance was measured at OD450 nm and OD650 nm and cell activity was calculated according to manufacturer's instructions.
Cytokine production of PBMC: PBMC were incubated with indicated reagents. After incubation, the supernatants were collected and IL2, IL6, IL10, IL13, IL21, TNFα, IFNγ, MIF, CCL1, CCL13, CCL17, CCL20, CCL22 and CXCL8-11 levels were measured by conducting a validated multiplex immunoassay based on Luminex technology (xMAP, Luminex Austin Tex. USA). Acquisition was conducted with the Biorad FlexMAP3D (Biorad laboratories, Hercules USA) in combination with xPONENT software version 4.2 (Luminex). Data was analyzed by 5-parametric curve fitting using Bio-Plex Manager software, version 6.1.1 (Biorad).
After PBMC stimulation, cell culture supernatants were collected, after which cytokine responses were measured in order to test immune responsiveness of the cells. The levels of cytokines measured in stimulated conditions were corrected for the (low) levels of the cytokines measured in non-stimulated conditions. In addition, since each donor is reacting in its own efficiency onto the T cell stimulus, we calculated the individual index of cytokine response by dividing the intervention induced response by the basal stimulated response.
Subsequently, in order to test the direct effect of specific compounds on PBMC activity, the cells were activated with CD3/CD28 for 24 hours after a pre-incubated for 24 h with either 2′-FL, 3′-GL and combinations thereof. In addition, since each donor is reacting in its own efficiency onto the T cell stimulus, the individual index of cytokine response was calculated by dividing the intervention induced response by the basal stimulated response (the blanc is set at 1). In this way the intervention within 10 different donors has been studied.

For the molecule “Gal (beta 1-3)-Gal (beta 1-4)-Glc [3′-GL]”, the Growth of bifidobacteria result in experiment [1] is “Growth of bifidobacteria was observed”. In experiment [1] (inoculum of baby 2), the effect on bifidobacteria result is given as “highest”. For the same molecule, in experiment [2], the “CCL17 levels, in words” value is “no significant effect”; the “levels of IL-4 and IL-13 as compared to control, in words” value is listed as “a decrease was detected”; the “Relative level of CCL17, Mean (s.e.)” value was 0.6212 (0.0531); the “Relative level of IL-4, Mean (s.e.)” value is reported as 0.5825 (0.0413). In addition, the “Relative level of IL-13, Mean (s.e.)” value in experiment [2] is 0.5472 (0.0723).

In the case of `C[C@@H]1O[C@@H](O[C@H]2[C@H](O[C@H]3[C@H](O)[C@@H](O)C(O)O[C@@H]3CO)O[C@H](CO)[C@H](O)[C@@H]2O)[C@@H](O)[C@H](O)[C@@H]1O` (stereo partly drawn) [2′-FL, α-L-Fuc-(1→2)-β-D-Gal-(1→4)-D-Glc], the Growth of bifidobacteria result in experiment [1] is on record as “Growth of bifidobacteria was observed”. In addition, in experiment [2], the “CCL17 levels, in words” value is listed as “no significant effect”; the “levels of IL-4 and IL-13 as compared to control, in words” value is listed as “had no effect”; the “Relative level of CCL17, Mean (s.e.)” value is reported as 1.061 (0.117); the “Relative level of IL-4, Mean (s.e.)” value is listed as 0.9887 (0.0517). Besides, the “Relative level of IL-13, Mean (s.e.)” value in experiment [2] was 1.039 (0.080).
